The numbers were not newly measured in patent US20060122162A1, “Methods of using temozolomide formulation intrathecally in the treatment of cancers” (Schering Corporation, priority 2004, published 2006), which cites them from elsewhere.

The structures appear in SMILES notation.

Turning to `Cn1nnc2c(C(N)=O)ncn2c1=O` [Temozolomide, 3,4-dihydro-3-methyl-4-oxoimidazo-[5,1-d]-1,2,3,4-tetrazin-8-carboximide], the solubility in water result is given as “water-insoluble”. The “patients in whom clinical responses were achieved” value in the data set on advanced melanoma (patients having advanced melanoma, Newlands et al., Br J Cancer 1992) is given as 17%. Moreover, in the data set on advanced melanoma (patients with advanced melanoma, Bleehan et al., Journal of Clinical Oncology 1995), the “patients in whom a clinical response was achieved” value is 21%.
